Measured values taken from ChEMBL document CHEMBL5143544, “Chemoenzymatic synthesis, computational investigation, and antitumor activity of monocyclic lankacidin derivatives” (Bioorg Med Chem, 2022).

Legend:
HeLa = test: Cytotoxicity against human HeLa cells assessed as reduction in cell viability after 72 hrs by MTT assay; type: functional, cell-based
A549 = test: Cytotoxicity against human A549 cells assessed as reduction in cell viability after 72 hrs by MTT assay; type: functional, cell-based; settings: A549, 72 h
MCF7 = test: cells; settings: Homo sapiens, MCF7, 72 h
Description: Cytotoxicity against human MCF7 cells assessed as reduction in cell viability after 72 hrs by MTT assay

Micrococcus luteus = test: Antimicrobial activity against Micrococcus lutes assessed as reduction in microbial growth incubated for 24 hrs by agar dilution method; type: functional

SMILES	IC50 (HeLa) [µM]	IC50 (A549) [µM]	IC50 (MCF7) [µM]	MIC (Micrococcus luteus) [µM]
CC(=O)C(=O)N[C@@H]1/C=C(C)/C=C/[C@@H](O)C/C=C(C)/C=C/[C@@H](O)C/C=C(\C)C(=O)[C@@H]1C	> 100	> 100	> 100	
CC1=C\C[C@H](O)/C=C/C(C)=C/[C@@H](NC(=O)[C@H](C)O)[C@]2(C)C(=O)O[C@H](C[C@H](O)\C=C\1)[C@@H](C)C2=O	24.8	> 100	75.7	
CC1=C\C[C@H](O)/C=C/C(C)=C/[C@@H](NC(=O)[C@H](C)O)[C@H](C)C(=O)/C(C)=C/C[C@H](O)\C=C\1	13.3	> 100	> 100	
CC(=O)C(=O)N[C@@H]1/C=C(C)/C=C\[C@@H](O)C/C=C(C)/C=C/[C@@H](O)C[C@H]2OC(=O)[C@]1(C)C(=O)[C@@H]2C	23.3	> 100	> 100	6.2
CC(=O)C(=O)N[C@@H]1/C=C(C)/C=C/[C@@H](O)C/C=C(C)/C=C/[C@@H](O)C/C=C(\C)C(=O)[C@H]1C	72.9	> 100	> 100	
CC1=C\C[C@H](O)/C=C/C(C)=C/[C@@H](NC(=O)[C@H](C)O)[C@@H](C)C(=O)/C(C)=C/C[C@H](O)\C=C\1	45.4	> 100	42.8	
CC(=O)O[C@@H]1/C=C/C(C)=C/C[C@H](O)/C=C/C(C)=C/[C@@H](NC(=O)[C@H](C)O)[C@]2(C)C(=O)O[C@H](C1)[C@@H](C)C2=O	48.2	> 100	47.1	
CC(=O)O[C@H]1C(=O)[C@@]2(C)[C@H]([C@H](OC(=O)c3ccccc3)[C@]3(O)C[C@H](OC(=O)[C@H](O)[C@@H](NC(=O)c4ccccc4)c4ccccc4)C(C)=C1C3(C)C)[C@]1(OC(C)=O)CO[C@@H]1C[C@@H]2O [PACLITAXEL]	< 0.00625	0.0295	> 0.0811	
O=c1[nH]cc(F)c(=O)[nH]1 [FLUOROURACIL]	32.1	6.6	22.8	
